Reference: patent publication US6706686B2, “Inhibition of histone deacetylase as a treatment for cardiac hypertrophy” (The Regents of the University of Colorado, priority 2001, dated 2004)

System: ANF in neonatal cardiomyocytes
Assay: ANF chemiluminescence detection, dose response
Type: cell-based, rat
Description: FIGS. 4A-C. […] As in the transfection experiments, phenylephrine (100 µM) induces ANF expression over three-fold. […] (FIGS. 4B and 4C) The graphs show a reduction of the chemiluminent detection of ANF in the culture medium with increasing concentrations of the HDAC inhibitors TSA (FIG. 4B) and sodium butyrate (FIG. 4C) when co-cultured with the hypertrophic stimulants FBS, PE or ET-1.
Chemilumenescence. Neonatal cardiomyocytes were seeded onto 96-well plates and treated for 72 hrs. The cells were washed twice in 1×PBS, fixed in 4% paraformaldehyde/1×PBS, and permeabilized with 0.1% Triton-X100. After blocking, the cells were incubated 1 hr. with 10 μg/ml monoclonal anti-ANF antibody (Biodesign). The wells were washed twice with 1% BSA/1× PBS and then incubated for 1 hr. with goat anti-mouse IgG-Fc-HRP (Jackson Labs, […]) at 1:1000 in 1× PBS/1% BSA. Cells were washed twice with 1% BSA/1×PBS, twice with 1× PBS, then blotted dry. Luminol (Pierce, Rockford, Ill.) was added and the chemiluminescence was detected in a Fusion Plate Reader (Perkin Elmer/Packard).

`CC(/C=C/C(=O)NO)=C\[C@@H](C)C(=O)c1ccc(N(C)C)cc1` [TSA, Trichostatin A] was tested, and the “minimal concentration that inhibited the hypertrophic response (ANF) of each growth stimulant” value (FBS, PE, ET-1) was 40 nM, the “induction of ANF expression by FBS, PE and ET-1” value (increasing concentrations) was “countered the induction of ANF expression” and the “ANF expression at very low doses” value (very low doses (0.2 nM printed for sodium butyrate)) was “only a marginal increase”.
